Laboratory results from patent publication US20060058346A1, “Novel enantiomers of etrahydroisoquinoline derivatives and theirpharmaceutically acceptable salts, their preparations and pharmaceutical compositions” (priority 2002, published 2006).
Like-named read-outs stand apart in the source and are kept apart here.

Legend:
LPS-injected rat [1] = experiment: Serum/plasma level of nitrate/nitrite (NOx) in LPS-injected rat; type: in vivo; conditions: 10 mg/kg compound; LPS 20 mg/kg
Method: The rats were divided into three groups; (1) LPS-injected group (LPS was administered to abdominal cavity in an amount of 20 mg/kg), (2) enantiomer-injected group (LPS+the compounds represented by formula 3 to 8 was administered to abdominal cavity) or (3) saline solution-injected group. After administration of LPS, the rats were anaesthetized with pentobarbital. The blood was collected from rats by using heart punching. The plasma level of nitrite was measured by using the nitrate reductase derived from Aspergillus species, where the nitrate was reduced by enzyme. Particularly, the plasma was diluted with distilled water in a ratio of 1:10. Analysis buffering solution (KH2PO4 50 Mm, NADPH 0.6 Mm, FAD 5 Mm and nitrate reductase 10 U/ml, Ph 5.5) was added to the said plasma. Thereafter, the reaction was accomplished at 37° C. for 30 min. The plasma level of nitrite was measured by using sodium nitrite as a standard, and Griess solution. Standard curve to nitrite was calculated from the result derived from incubation in analysis buffering solution.

left auricle muscle = experiment: Contractile force of left auricle muscle excised from rats; parameters: species or system rat; conditions: vehicle control:100%
Method: (§1) Immediately after Sprague-Dawley rats (female or male) were anaesthetized with pentobarbital sodium (50 mg/kg, i.m.), the thorax was opened to excise the heart. The heart was submerged in Krebs solution, and left auricle muscle and right auricle muscle were then isolated. The left auricle muscle was placed in an organ bath for recording of contractile force, and applied with electrical field stimulation (voltage 10% higher than threshold voltage, 1 Hz frequency, 5 ms duration). In the case of right auricle muscle, which contracts spontaneously, the number of continuous beats was recorded. In this experiment, to measure contractile fore of the two auricle muscles, the organ bath was warmed to 37° C., and as a physiological solution, Krebs solution (119.8 mM NaCl, 4.6 mM KCl, 2.5 mM CaCl2, 1.2 mM MgCl2, 25 mM NaHCO3, 1.2 mM KH2PO4, 10 mM glucose, 1 mM EDTA, pH 7.4) was used. The Krebs solution (pH 7.4) was continuously saturated with a gas mixture of 95% O2 and 5% CO2. The auricle muscle was under a tension of 1 g, and Krebs solution was exchanged with fresh solution at intervals of 20 minutes while equilibrium was maintained during a recording period of 60 minutes.

right auricle muscle = experiment: Heart rates (beats) of right auricle muscle excised from rats; parameters: species or system rat; conditions: vehicle control:100%
Method: as §1

LPS-injected rat [2] = conditions: from Kang et al. 1999; cited from earlier work
Rat Thoracic Aortas = experiment: Relaxation of rat thoracic aortas contracted by phenylephrine; conditions: 0.1 μM phenylephrine contraction
Method: Experimental group was divided into two groups, group containing endothelial cells of blood vessel and group not containing. Blood vessel of thoracic aortas was induced to contract by treatment with 0.1 μM of phenyleprine under tension of 1 g. Upon arriving at equilibrium, the enantiomers were added to an organ bath in a cumulative manner. Relaxation of thoracic aortas was recorded using a physiograph (Grass P7), calculating their response to the compounds with consideration of their added amount.

Sprague-Dawley rats = experiment: Acute toxicity in rat (LD50); type: in vivo; conditions: for LD50, Intraperitioneal injection: single intraperitoneal injection; for LD50, Intravenous injection: single intravenous injection
Method: (§2) Sprague-Dawley rats (six weeks) were used as test sample. Each group was comprised of two rats. […] The said emulsion was administered to two rats one times using intravenous injection and intraperitoneal injection.

[3] = tested on: RAW 264.7 macrophage cells; experiment: Nitric oxide production in macrophage cell stimulated by LPS (Griess); type: cell-based; conditions: LPS 1 μg/ml
Method: RAW 264.7 macrophage cells were plated on 100 mm culture dishes at a density of 1-2×10^5 cells. Thereafter, the said macrophage cell was incubated in DMEM medium containing 10% fetal calf serum (heat-inactivated), 100 U/ml penicillin, and […] streptomycin in a CO2 incubator. The said macrophage cell was incubated therein confluently. The said incubated macrophage cells were transferred to serum-free DMEM medium, and further incubated therein for about 24 hours. Thereafter, macrophage cells were stimulated with LPS (1 μg/ml) for about 8 hours. (In this progress, experimental group was divided into two groups, group to which the compound was administered, and group to which the compound was not.) Then, nitrite quantification was achieved by performing calorimetric reaction for produced nitrite with Griess reagent and then measuring absorbance at 550 nm, while using NaNO2 as a standard.

rat PRP = conditions: epinephrine; from Yun-Choi et al. 2001; read-out: IC50 platelet aggregation, epinephrine, racemic mixture; cited from earlier work
[4] = Acute toxicity in rat (LD50); type: in vivo; conditions: Sprague-Dawley, in vivo
Method: as §2

[5] = group containing endothelial cells, read-out: IC50 (E+), concentration showing relaxation response of 50%
[6] = group not containing endothelial cells, read-out: IC50 (E−), concentration showing relaxation response of 50%

| Compound | Contractile Force of Auricle Muscles (left auricle muscle; 1 × 10^−4 M) | Contractile Force of Auricle Muscles (left auricle muscle; 1 × 10^−5 M) | Contractile Force of Auricle Muscles (left auricle muscle; 1 × 10^−6 M) | Contractile Force of Auricle Muscles (left auricle muscle; 1 × 10^−7 M) | Contractile Force of Auricle Muscles (left auricle muscle; 3 × 10^−5 M) | Contractile Force of Auricle Muscles (left auricle muscle; 3 × 10^−6 M) | Contractile Force of Auricle Muscles (left auricle muscle; 3 × 10^−7 M) | Heart Rates of Auricle Muscles (right auricle muscle; 1 × 10^−4 M) | Heart Rates of Auricle Muscles (right auricle muscle; 1 × 10^−5 M) | Heart Rates of Auricle Muscles (right auricle muscle; 1 × 10^−6 M) | Heart Rates of Auricle Muscles (right auricle muscle; 1 × 10^−7 M) | Heart Rates of Auricle Muscles (right auricle muscle; 3 × 10^−5 M) | Heart Rates of Auricle Muscles (right auricle muscle; 3 × 10^−6 M) | Heart Rates of Auricle Muscles (right auricle muscle; 3 × 10^−7 M) | survival, racemic mixture (LPS-injected rat [2]) | IC50 (Rat Thoracic Aortas; [5]) | NO production by LPS in macrophage cell ([3]; compound 10 μM) | NO production by LPS in macrophage cell ([3]; compound 50 μM) | NO production by LPS in macrophage cell ([3]; compound 100 μM) | IC50 (rat PRP) | also measured |
| --- | --- | --- | --- | --- | --- | --- | --- | --- | --- | --- | --- | --- | --- | --- | --- | --- | --- | --- | --- | --- | --- |
| Oc1ccc(CC2NCCc3cc(O)c(O)cc32)cc1 (racemic) [Racemic mixture of formula 3 and formula 4, higenamine, reference compound] | 300% | 260% | 180% | 115% | 280% | 240% | 130% | 200% | 140% | 115% | 110% | 160% | 125% | 110% | 80% | 9.81 µM | 21.3 µM | 14.3 µM | 15.2 µM | 7.2 µM | plasma level of NOx (LPS-injected rat [1]): 75 ± 4 µM; IC50 (Rat Thoracic Aortas; [6]): 5.61 µM; LD50, Intraperitioneal injection (Sprague-Dawley rats): 280 mg/kg; LD50, Intravenous injection (Sprague-Dawley rats): 98 mg/kg |
| Oc1cc2c(cc1O)C(Cc1cccc3ccccc13)NCC2 (racemic) [Racemic mixture of formula 5 and formula 6, 1-α-naphthylmethyl-6,7-dihydroxy-1,2,3,4-tetrahydroisoquioline, reference compound] | 490% | 400% | 310% | 140% | 430% | 360% | 200% | 135% | 130% | 120% | 115% | 130% | 120% | 115% | 90% | 0.105 µM | 31 µM | 28 µM | 26 µM | 1.7 µM | IC50 (Rat Thoracic Aortas; [6]): 6.41 µM; LD50, Intraperitioneal injection (Sprague-Dawley rats): 242 mg/kg; LD50, Intravenous injection (Sprague-Dawley rats): 92 mg/kg |
| Oc1cc2c(cc1O)C(Cc1ccc3ccccc3c1)NCC2 (racemic) [Racemic mixture of formula 7 and formula 8, 1-β-naphthylmethyl-6,7-dihydroxy-1,2,3,4-tetrahydroisoquinoline, reference compound] | 310% | 250% | 180% | 110% | 270% | 220% | 140% | 140% | 140% | 125% | 110% | 140% | 135% | 120% |  |  | 45 µM | 40 µM | 39 µM | 6.3 µM | IC50 (Rat Thoracic Aortas; Rattus norvegicus, Endothelial cell, group containing endothelial cells, read-out: IC50 (E+), concentration showing relaxation response of 50%): 8.75 µM; IC50 (Rat Thoracic Aortas; Rattus norvegicus, Endothelial cell, group not containing endothelial cells, read-out: IC50 (E−), concentration showing relaxation response of 50%): 51.5 µM; LD50 ([4]; ip, single intraperitoneal injection, read-out: LD50, Intraperitioneal injection): 220 mg/kg; LD50 ([4]; single intravenous injection, read-out: LD50, Intravenous injection): 84 mg/kg |
